How the values were obtained:
[1] = tested on: CREB-bound genes in KG-1 cells; assay: RNA-Seq of KG-1 cells; type: cell-based
Method: For Chip-Seq experiments, KG-1 cells were treated with 5 μM Compound A or DMSO for 6 hours. Cells were cross-linked with 1% formaldehyde at room temperature for 10 min and then incubated with […] for 5 min. After cross-linking, chromatin was digested by Micrococcal nuclease and then sonicated using SimpleChIP® Plus Enzymatic Chromatin IP Kit (Cell Signaling, Danvers, Mass.) following the manufacturer's protocol. Chromatin immunoprecipitations were carried out with anti-CREB antibody (Millipore, Billerica, Mass.) or a control IgG (Santa Cruz Biotechnology). The captured immunocomplexes containing bound transcriptional DNA fragments were eluted, with recovered DNA fragments used for PCR amplification. For RNA-Seq experiments, KG-1 cells were treated with Compound A (5 μM) or 0.1% DMSO for 12 hours. RNA was prepared using the Aurum Total RNA Mini Kit (Bio-Rad). Sample libraries were run using the Illumina sequencing platform. Two hundred million reads were collected on two biological replicates of the experiment. Libraries were prepared using the Illumina Truseq RNA samples prep kit per manufacturer's instructions. Fastq files were aligned using TopHat. Aligned BAM files were used for CuffDiff calculation of differentially expressed genes. CummeRbund R package was used to infer QC of the RNA-seq (GEO Submission GSE74928) [NCBI tracking system #17594369]. ChIP-seq analysis was performed. BETA analysis was used by inferring differentially expressed genes between DMSO and Compound A treated cells based on a fdr≤0.01 and gene distance of 100 kb (Galaxy/cistrome). DNA sequences enriched on ChIP-Seq were defined.
To determine the functional specificity and downstream effects of Compound A in AML, the CREB transcriptome was first defined in KG-1 cells using CREB chromatin immunoprecipitation followed by high-throughput sequencing (CREB ChIP-Se). […] In this way, the ‘on-target’ effects of Compound A could be assessed.

HL-60 AML cells = assay: HL-60 AML xenograft in NSG mice; type: in vivo; details: for GFP+ cells in bone marrow / GFP+ cells in spleen / spleen weight: endpoint
Method: For AML xenograft mouse experiments, HL-60 cells (2×10^6) expressing firefly luciferase and GFP, or cryopreserved human AML patient cells (5×10^6), were injected through the tail vein into NOD.Cg-prkdc^scid Il2rg^tm1WjlSzJ (NSG) mice. Mice were then Compound A or 10% DMSO, injected intravenously by tail vein daily, until death or an endpoint was reached (moribundity) in accordance with the animal care institutional guidelines. All mouse experiments were subject to institutional approval by Stanford University Institutional Animal Care and Use Committee. Leukemia progression in mice at the indicated time points was monitored using an in vivo IVIS 100 bioluminescenceoptical imaging system (Xenogen Corporation). D-Luciferin (Promega) dissolved in sterile phosphate-buffered saline was injected intraperitoneally at a dose of 2.5 mg/kg, 15 minutes before measuring the luminescent signal. General anesthesia was induced with […] and continued during the procedure using a nose cone. Analysis was performed on Living Image In Vivo imaging software (Perkin-Elmer). Imaging was performed in collaboration with the Stanford Small Animal Imaging Facility. Bone marrow was aspirated from bone marrow cavities, and GFP+ cells were sorted using the FACSCalibur flow cytometer (BD Biosciences).
To examine the efficacy of CREB inhibition in an in vivo model of AML, 4-6 week old NOD.Cg-Prkdc^scid Il2rg^tm1WjlSzJ (NSG) mice were tail-vein injected with HL-60 AML cells (2×10^6) expressing Firefly luciferase and GFP. Groups of ten mice received 10% DMSO or 2.3 mg/kg Compound A intravenously (IV) once daily starting the day after cell injection (immediate treatment groups), or one of the same two treatments starting seven days after AML cell injection (delayed treatment groups). This dose of Compound A was selected, as it was the maximum deliverable IV injection concentration and volume in 10% DMSO solution per gram mouse body weight. […] The efficacy of Compound A was also assessed in a mouse xenograft model using primary AML cell sample (patient sample #186), using similar methods.

[2] = delayed treatment group (from day 7), 2.3 mg/kg IV once daily
[3] = immediate treatment group, 2.3 mg/kg IV once daily

With `N#Cc1ccc(NC(=O)c2cc3ccccc3cc2O)cc1` [Compound A, N-(4-cyanophenyl)-3-hydroxy-2-naphthamide] the “number of CREB-bound genes with greater than 50% reduced expression” value ([1]; 5 μM, 12 hours) was 602, the “number of CREB-bound genes with reduced expression” value ([1]; 5 μM, 12 hours, of 4680 CREB-bound sites) was 2787 and the “target gene expression of other CBP-binding transcription factors (Rel, RelA, RelB, Foxo3, Foxo1, Myb)” value ([1]; KG-1 cells, RNA-Seq) was “no significant change”. For the same compound, the “mean weight of visceral tumors” value (HL-60 AML cells; Compound A-treated group) was 0.027 ± 0.019 g, the “mice that developed visible visceral tumors (chloromas)” value (HL-60 AML cells; Compound A-treated group) was 4 of 10 and the liver weights (HL-60 AML cells; across groups) was “no differences in liver weights”. For the same compound, the “circulating leukemia cells (blood counts and smear)” value (HL-60 AML cells; at the time of sacrifice) was “none of the Compound A-treated mice had detectable circulating leukemia cells”, the “GFP+ cells in bone marrow” value (HL-60 AML cells; delayed group) was 19.9±8.22% and the “GFP+ cells in spleen” value (HL-60 AML cells; delayed group) was 4.1±1.44%. The spleen weight (HL-60 AML cells; delayed group) was 50.6 ± 9.1 mg, the mean survival (HL-60 AML cells; [2]) was 26.4 days and the median survival (HL-60 AML cells; [2]) was 24 days. For the same compound, the “average radiance (bioluminescence imaging)” value (HL-60 AML cells; delayed treatment, 2.3 mg/kg IV once daily, day 17) was 2.8×10^5 p/sec/cm^2/sr, the “GFP+ cells in bone marrow” value (HL-60 AML cells; immediate group) was 9.3±1.28% and the “GFP+ cells in spleen” value (HL-60 AML cells; immediate group) was 0.64±0.27%. For the same compound, the spleen weight (HL-60 AML cells; immediate group) was 43.3 ± 3.6 mg, the mean survival (HL-60 AML cells; [3]) was 31.2 days and the median survival (HL-60 AML cells; [3]) was 31 days.

— patent publication US20210205292A1, “INHIBITORS OF CREB-CBP INTERACTION FOR TREATMENT OF LEUKEMIA” (The Board of Trustees of the Leland Stanford Junior …, priority 2016, published 2021)
